Data published in patent US9433622B2, “Pyrimidine compounds useful in the treatment of diseases mediated by IKKE and/or TBK1 mechanisms” (DOMAINEX LIMITED, priority 2013, dated 2016).
Where two headings read alike, the source gives them in different places.

Columns and labels:
IKKε = IKKε (Homo sapiens (Human), UniProt Q14164); assay: Lanthascreen TR-FRET kinase inhibition assay, IKKε; assay type: biochemical
Outline: (§1)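 TR-FRET: terbium phosphospecific antibody detects phosphorylation of 400 nM fluorescein-IkBα peptide, 20 μM ATP, 20 °C, HEPES pH 7.5 with 3% DMSO. IKKε at 2 nM, 1 h reaction; TBK1 at 8 nM, 2.5 h reaction; started by kinase addition.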

TBK1 = TBK1 (Homo sapiens (Human), UniProt Q9UHD2); assay: Lanthascreen TR-FRET kinase inhibition assay, TBK1; assay type: biochemical; settings: 20 μM ATP (apparent Km), 8 nM kinase, 2.5 h
Chain of TBK1 (Q9UHD2 whole entry): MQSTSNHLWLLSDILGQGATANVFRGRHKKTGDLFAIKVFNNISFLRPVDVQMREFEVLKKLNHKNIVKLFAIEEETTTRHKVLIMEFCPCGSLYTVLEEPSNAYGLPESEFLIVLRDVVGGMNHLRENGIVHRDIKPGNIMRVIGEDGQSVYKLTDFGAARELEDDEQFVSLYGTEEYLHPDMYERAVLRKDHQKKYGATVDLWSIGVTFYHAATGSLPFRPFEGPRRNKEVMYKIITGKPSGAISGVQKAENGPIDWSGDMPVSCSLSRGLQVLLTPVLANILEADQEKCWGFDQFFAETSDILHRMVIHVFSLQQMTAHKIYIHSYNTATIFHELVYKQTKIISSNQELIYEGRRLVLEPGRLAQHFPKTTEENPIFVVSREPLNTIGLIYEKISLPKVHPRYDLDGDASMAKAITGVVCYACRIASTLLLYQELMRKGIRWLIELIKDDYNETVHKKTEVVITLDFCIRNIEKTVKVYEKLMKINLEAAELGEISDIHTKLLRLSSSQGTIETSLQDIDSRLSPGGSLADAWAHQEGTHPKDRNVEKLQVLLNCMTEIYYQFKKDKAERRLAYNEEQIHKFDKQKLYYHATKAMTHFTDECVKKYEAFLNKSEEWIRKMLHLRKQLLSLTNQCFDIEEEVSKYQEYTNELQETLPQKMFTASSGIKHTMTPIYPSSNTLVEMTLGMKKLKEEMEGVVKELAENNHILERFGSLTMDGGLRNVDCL
Outline: as §1

[1] = 20 μM ATP (apparent Km), 2 nM kinase, 1 h

Chain of IKKε (Q14164 whole entry): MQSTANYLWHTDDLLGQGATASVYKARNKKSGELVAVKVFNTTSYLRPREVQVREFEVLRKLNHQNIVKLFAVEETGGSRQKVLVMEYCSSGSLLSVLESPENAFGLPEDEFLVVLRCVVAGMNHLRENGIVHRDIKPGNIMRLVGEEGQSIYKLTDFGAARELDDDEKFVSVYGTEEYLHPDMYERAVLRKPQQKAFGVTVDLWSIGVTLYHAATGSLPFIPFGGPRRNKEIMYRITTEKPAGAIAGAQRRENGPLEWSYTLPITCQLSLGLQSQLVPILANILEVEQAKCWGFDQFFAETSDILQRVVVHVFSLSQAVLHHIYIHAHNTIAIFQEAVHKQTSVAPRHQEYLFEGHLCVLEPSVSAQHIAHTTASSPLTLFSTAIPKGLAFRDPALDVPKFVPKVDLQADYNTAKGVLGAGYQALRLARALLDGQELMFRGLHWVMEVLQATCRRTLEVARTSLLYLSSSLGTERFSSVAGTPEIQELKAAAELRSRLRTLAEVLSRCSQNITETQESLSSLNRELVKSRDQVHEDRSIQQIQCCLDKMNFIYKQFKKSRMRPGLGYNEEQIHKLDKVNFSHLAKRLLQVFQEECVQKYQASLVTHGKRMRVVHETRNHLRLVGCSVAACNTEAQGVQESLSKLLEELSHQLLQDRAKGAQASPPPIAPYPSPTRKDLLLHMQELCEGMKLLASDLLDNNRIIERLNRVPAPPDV

| SMILES | IC50 (IKKε; [1]) | IC50 (TBK1) | IC50 (IKKε) |
| --- | --- | --- | --- |
| CN1CCC(Nc2ccc(Nc3nccc(-c4cnc(NCCO)c(C#N)c4)n3)cn2)CC1 [DMX-120, 2-(2-Hydroxy-ethylamino)-5-{2-[6-(1-methyl-piperidin-4-ylamino)-pyridin-3-ylamino]-pyrimidin-4-yl}-nicotinonitrile] | < 1000 nM | < 100 nM |  |
| N#Cc1cc(-c2ccnc(Nc3ccc(CN4CCOCC4)nc3)n2)cnc1NC1CC1 [DMX-122, 2-Cyclopropylamino-5-[2-(6-morpholin-4-ylmethyl-pyridin-3-ylamino)-pyrimidin-4-yl]-nicotinonitrile] | < 1000 nM | < 100 nM |  |
| N#Cc1cc(-c2nc(Nc3ccc(CN4CCOCC4)nc3)ncc2F)cnc1NC1CC1 [DMX-123, 2-Cyclopropylamino-5-[5-fluoro-2-(6-morpholin-4-ylmethyl-pyridin-3-ylamino)-pyrimidin-4-yl]-nicotinonitrile] | < 1000 nM | < 100 nM |  |
| N#Cc1cc(-c2nc(Nc3ccnc(NC(=O)CN4CCOCC4)c3)ncc2F)cnc1NC1CC1 [DMX-124, N-{4-[4-(5-Cyano-6-cyclopropylamino-pyridin-3-yl)-5-fluoro-pyrimidin-2-ylamino]-pyridin-2-yl}-2-morpholin-4-yl-acetamide] | < 1000 nM | < 100 nM |  |
| COCCNc1cc(Nc2ncc(F)c(-c3cnc(NC4CC4)c(C#N)c3)n2)ccn1 [DMX-125, 2-Cyclopropylamino-5-{5-fluoro-2-[2-(2-methoxy-ethylamino)-pyridin-4-ylamino]-pyrimidin-4-yl}-nicotinonitrile] | < 1000 nM | < 100 nM |  |
| N#Cc1cc(-c2ccnc(Nc3ccc4c(c3)CNC4)n2)cnc1N1CC[C@H](F)C1 [DMX-126, 5-[2-(2,3-Dihydro-1H-isoindol-5-ylamino)-pyrimidin-4-yl]-2-((S)-3-fluoro-pyrrolidin-1-yl)-nicotinonitrile] | < 15 nM | < 15 nM |  |
| COCCN1Cc2ccc(Nc3nccc(-c4cnc(N5CC[C@H](F)C5)c(C#N)c4)n3)cc2C1 [DMX-127, 2-((S)-3-Fluoro-pyrrolidin-1-yl)-5-{2-[2-(2-methoxy-ethyl)-2,3-dihydro-1H-isoindol-5-ylamino]-pyrimidin-4-yl}-nicotinonitrile] | < 15 nM | < 15 nM |  |
| Cc1nccn1CC(=O)Nc1ccc(Nc2nccc(-c3cnc(N4CC[C@H](F)C4)c(C#N)c3)n2)cn1 [DMX-128, N-(5-{4-[5-Cyano-6-((S)-3-fluoro-pyrrolidin-1-yl)-pyridin-3-yl]-pyrimidin-2-ylamino)-pyridin-2-yl)-2-(2-methyl-imidazol-1-yl)-acetamide] | < 30 nM | < 30 nM |  |
| CC(=O)NCC1CCCN1c1ncc(-c2ccnc(Nc3ccc(CN4CCOCC4)nc3)n2)cc1C#N (stereo not shown) [DMX-130, N-(1-{3-Cyano-5-[2-(6-morpholin-4-ylmethyl-pyridin-3-ylamino)-pyrimidin-4-yl]-pyridin-2-yl}-pyrrolidin-2-ylmethyl)-acetamide] | < 1000 nM | < 1000 nM |  |
| N#Cc1cc(-c2ccnc(Nc3ccc(CN4CCOCC4)nc3)n2)cnc1N1CCCC1CC(N)=O (stereo not shown) [DMX-131, 2-(1-{3-Cyano-5-[2-(6-morpholin-4-ylmethyl-pyridin-3-ylamino)-pyrimidin-4-yl]-pyridin-2-yl}-pyrrolidin-2-yl)-acetamide] | < 30 nM | < 30 nM |  |
| N#Cc1cc(-c2ccnc(Nc3ccc(CN4CCOCC4)nc3)n2)cnc1N1CCNC(=O)CC1 [DMX-133, 5-[2-(6-Morpholin-4-yImethyl-pyridin-3-ylamino)-pyrimidin-4-yl]-2-(5-oxo-[1,4]diazepan-1-yl)-nicotinonitrile] | < 1000 nM | < 1000 nM |  |
| CC(Nc1ncc(-c2ccnc(Nc3ccc(CN4CCOCC4)nc3)n2)cc1C#N)C(N)=O (stereo not shown) [DMX-134, 2-{3-Cyano-5-[2-(6-morpholin-4-ylmethyl-pyridin-3-ylamino)-pyrimidin-4-yl]-pyridin-2-ylamino}-propionamide] | < 100 nM | < 100 nM |  |
| CC(C(N)=O)N(C)c1ncc(-c2ccnc(Nc3ccc(CN4CCOCC4)nc3)n2)cc1C#N (stereo not shown) [DMX-135, 2-({3-Cyano-5-[2-(6-morpholin-4-ylmethyl-pyridin-3-ylamino)-pyrimidin-4-yl]-pyridin-2-yl}-methyl-amino)-propionamide] | < 100 nM | < 100 nM |  |
| CC(C)C(Nc1ncc(-c2ccnc(Nc3ccc(CN4CCOCC4)nc3)n2)cc1C#N)C(N)=O (stereo not shown) [DMX-136, 2-{3-Cyano-5-[2-(6-morpholin-4-ylmethyl-pyridin-3-ylamino)-pyrimidin-4-yl]-pyridin-2-ylamino}-3-methyl-butyramide] | < 15 nM | < 15 nM |  |
| CN(CC1CCOC1)c1ncc(-c2ccnc(Nc3ccc(CN4CCOCC4)nc3)n2)cc1C#N (stereo not shown) [DMX-137, 2-[Methyl-(tetrahydro-furan-3-ylmethyl)-amino]-5-[2-(6-morpholin-4-ylmethyl-pyridin-3-ylamino)-pyrimidin-4-yl]-nicotinonitrile] | < 1000 nM | < 1000 nM |  |
| N#Cc1cc(-c2ccnc(Nc3ccc(CN4CCOCC4)nc3)n2)cnc1NCC1CCOC1 (stereo not shown) [DMX-138, 5-[2-(6-Morpholin-4-ylmethyl-pyridin-3-ylamino)-pyrimidin-4-yl]-2-[(tetrahydro-furan-3-ylmethyl)-amino]-nicotinonitrile] | < 1000 nM | < 100 nM |  |

The next lines start with the values.

| IC50 (IKKε; [1]) | IC50 (TBK1) | IC50 (IKKε) | SMILES |
| --- | --- | --- | --- |
| < 100 nM | < 100 nM |  | N#Cc1cc(-c2ccnc(Nc3ccc(CN4CCOCC4)nc3)n2)cnc1NC1CCCC1 [DMX-139, 2-Cyclopentylamino-5-[2-(6-morpholin-4-ylmethyl-pyridin-3-ylamino)-pyrimidin-4-yl]-nicotinonitrile] |
| < 1000 nM | < 1000 nM |  | COCCN(C)c1ncc(-c2ccnc(Nc3ccc(CN4CCOCC4)nc3)n2)cc1C#N [DMX-140, 2-[(2-Methoxy-ethyl]-methyl-amino]-5-[2-(6-morpholin-4-ylmethyl-pyridin-3-ylamino)-pyrimidin-4-yl]-nicotinonitrile] |
| < 100 nM | < 100 nM |  | N#Cc1nc(-c2ccnc(Nc3ccc(NC(=O)CN4CCOCC4)nc3)n2)ccc1N1CC[C@H](O)C1 [DMX-141, N-(5-{4-[6-Cyano-5-((S)-3-hydroxy-pyrrolidin-1-yl)-pyridin-2-yl]-pyrimidin-2-ylamino}-pyridin-2-yl)-2-morpholin-4-yl-acetamide] |
| < 15 nM | < 15 nM |  | N#Cc1nc(-c2ccnc(Nc3ccc(NC(=O)CN4CCOCC4)nc3)n2)ccc1N1CC[C@H](F)C1 [DMX-142] |
| < 15 nM | < 15 nM |  | N#Cc1nc(-c2ccnc(Nc3ccc(CN4CCOCC4)nc3)n2)ccc1N1CC[C@H](F)C1 [DMX-143, 3-((S)-3-Fluoro-pyrrolidin-1-yl)-6-[2-(6-morpholin-4-ylmethyl-pyridin-3-ylamino)-pyrimidin-4-yl]-pyridine-2-carbonitrile] |
| < 30 nM | < 30 nM |  | N#Cc1nc(-c2ccnc(Nc3ccc(CN4CCOCC4)nc3)n2)ccc1N1CC[C@H](O)C1 [DMX-144, 3-((S)-3-Hydroxy-pyrrolidin-1-yl)-6-[2-(6-morpholin-4-ylmethyl-pyridin-3-ylamino)-pyrimidin-4-yl]-pyridine-2-carbonitrile] |
| < 30 nM | < 30 nM |  | N#Cc1nc(-c2ccnc(Nc3ccc(NC(=O)CN4CC[C@H](F)C4)nc3)n2)ccc1N1CC[C@H](F)C1 [DMX-145, N-(5-{4-[6-Cyano-5-((S)-3-fluoro-pyrrolidin-1-yl)-pyridin-2-yl]-pyrimidin-2-ylamino}-pyridin-2-yl)-2-((S)-3-fluoro-pyrrolidin-1-yl)-acetamide] |
| < 100 nM | < 30 nM |  | N#Cc1nc(-c2ccnc(Nc3ccc(NC(=O)CN4CC[C@H](F)C4)nc3)n2)ccc1N1CC[C@H](O)C1 [DMX-146, N-(5-{4-[6-Cyano-5-((S)-3-hydroxy-pyrrolidin-1-yl)-pyridin-2-yl]-pyrimidin-2 ylamino}-pyridin-2-yl)-2-((S)-3-fluoro-pyrrolidin-1-yl)-acetamide] |
| < 100 nM | < 30 nM |  | N#Cc1nc(-c2ccnc(Nc3ccc(OCCN4CC[C@H](F)C4)nc3)n2)ccc1N1CC[C@H](F)C1 [DMX-147, 3-((S)-3-Fluoro-pyrrolidin-1-yl)-6-(2-{6-[2-((S)-3-fluoro-pyrrolidin-1-yl)-ethoxy]-pyridin-3-ylamino}-pyrimidin-4-yl)-pyridine-2-carbonitrile] |
| < 100 nM | < 100 nM |  | N#Cc1nc(-c2ccnc(Nc3ccc(OCCN4CC[C@H](F)C4)nc3)n2)ccc1N1CC[C@H](O)C1 [DMX-148, 6-(2-{6-[2-((S)-3-Fluoro-pyrrolidin-1-yl)-ethoxy]-pyridin-3-ylamino}-pyrimidin-4-yl)-3-((S)-3-hydroxy-pyrrolidin-1-yl)-pyridine-2-carbonitile] |
|  | < 15 nM | < 15 nM | C[C@H]1COCCN1Cc1ccc(Nc2nccc(-c3ccc(N4CC[C@H](F)C4)c(C#N)n3)n2)cn1 [DMX-149, 3-((S)-3-Fluoro-pyrrolidin-1-yl)-6-{2-[6-((S)-3-methyl-morpholin-4-ylmethyl)-pyridin-3-ylamino]-pyrimidin-4-yl}-pyridine-2-carbonitrile] |
| < 15 nM | < 15 nM |  | N#Cc1nc(-c2ccnc(Nc3ccc(CN4CC[C@H](F)C4)nc3)n2)ccc1N1CC[C@H](F)C1 [DMX-150, 3-((S)-3-Fluoro-pyrrolidin-1-yl)-6-{2-[6-((S)-3-fluoro-pyrrolidin-1-ylmethyl)-pyridin-3-ylamino]-pyrimidin-4-yl}-pyridine-2-carbonitrile] |
| < 30 nM | < 30 nM |  | Cc1nccn1Cc1ccc(Nc2nccc(-c3ccc(N4CC[C@H](F)C4)c(C#N)n3)n2)cn1 [DMX-151, 3-((S)-3-Fluoro-pyrrolidin-1-yl)-6-{2-[6-(2-methyl-imidazol-1-ylmethyl)-pyridin-3-ylamino]-pyrimidin-4-yl}-pyridine-2-carbonitrile] |
